The values below come from ChEMBL document CHEMBL1201862, “PubChem BioAssay data set” (2004).

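Five concentrations, 48 hours, 96-well plates. At the GI50, growth is halved.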 The source made the active and inactive calls. No stated cut-off is given here; in the data, active = GI50 up to about 1.1 µM and inactive = higher. Bounds are passed on as bounds.

Some test systems named below: SK-MEL-2; U-251; SW-620; UACC-62; T47D; CAKI-1; SNB-75; UO-31; HCT-15; M14; NCI-H23; MDA-N; 786-0; MOLT-4; NCI-H522; COLO 205; HCC 2998; K562; SR; RXF 393.
What all share (experiment): growth of human tumour cells (NCI), 48 h

As to `CCOC(=O)c1cnn2c1ncc1c(=O)n(NC(N)=O)ccc12`, the GI50 in the assay with SK-MEL-2, with U-251, in the assay with SW-620, in the assay on UACC-62, with T47D and in the assay on CAKI-1 was > 100 µM (inactive) each time. Also, the GI50 with SNB-75 was > 100 µM (inactive); with UO-31, > 100 µM (inactive); with HCT-15 it was above 100 µM; in the assay on M14 it was > 100 µM (inactive); in the assay with NCI-H23, > 100 µM (inactive); with MDA-N, > 100 µM (inactive). Besides, the GI50 with 786-0, in the assay with MOLT-4, with NCI-H522 and in the assay with COLO 205 was > 100 µM (inactive) each time.
With `CC(=O)Nc1ccc(NCC(=O)Nn2cnc3ccc(S(=O)(=O)Nc4ccc(NC(C)=O)cc4)cc3c2=O)cc1`, the GI50 in the assay with SK-MEL-2, in the assay on U-251, with SW-620, with UACC-62, in the assay with CAKI-1 and in the assay with HCC 2998 was > 100 µM (inactive) in each case. Moreover, the GI50 is > 100 µM (inactive) in the assay with K562; > 100 µM (inactive) in the assay with SNB-75; > 100 µM (inactive) with UO-31; above 100 µM in the assay on HCT-15; > 100 µM (inactive) in the assay on M14; > 100 µM (inactive) with NCI-H23. The GI50 in the assay on MDA-N, in the assay with SR, in the assay on 786-0, in the assay on MOLT-4, with NCI-H522 and in the assay on COLO 205 was > 100 µM (inactive) throughout.
As for `Clc1cc(N/N=C(/c2ccccc2)c2ncccn2)ncn1`, the GI50 in the assay on SK-MEL-2 was 32.7 µM (inactive); with U-251, 31.8 µM (inactive); in the assay on SW-620, 7.18 µM (inactive); in the assay with UACC-62, 32.2 µM (inactive); with CAKI-1, 7.96 µM (inactive); in the assay with HCC 2998, 70.3 µM (inactive). Besides, the GI50 with K562 was 9.1 µM (inactive); with SNB-75, 26.1 µM (inactive); with UO-31 it was 19.5 µM (inactive); with HCT-15, 17.9 µM; in the assay on RXF 393, 19.8 µM (inactive); with M14, 29 µM (inactive). In addition, the GI50 was 21.4 µM (inactive) with NCI-H23; 62.8 µM (inactive) in the assay with MDA-N; 30.2 µM (inactive) with SR; 21.7 µM (inactive) in the assay with 786-0; 5.87 µM (inactive) in the assay on MOLT-4; 2.56 µM (inactive) with NCI-H522. The GI50 in the assay on COLO 205 was 4.29 µM (inactive).
Consider `CCc1ccc2oc(=O)ccc2c1`, for which the GI50 is > 100 µM (inactive) in the assay on SK-MEL-2; > 100 µM (inactive) in the assay on U-251; > 100 µM (inactive) with SW-620; 35.7 µM (inactive) with UACC-62; > 100 µM (inactive) in the assay with CAKI-1; > 100 µM (inactive) with HCC 2998. Moreover, the GI50 is > 100 µM (inactive) in the assay with K562; > 100 µM (inactive) in the assay on SNB-75; 31.4 µM (inactive) in the assay on UO-31; above 100 µM in the assay on HCT-15; > 100 µM (inactive) in the assay with RXF 393; > 100 µM (inactive) with M14. Moreover, the GI50 in the assay on NCI-H23, with MDA-N, in the assay with SR, in the assay with 786-0, in the assay with MOLT-4 and in the assay on NCI-H522 was > 100 µM (inactive) in each case. Further, the GI50 in the assay on COLO 205 is > 100 µM (inactive).
As to `Cc1ccc(C(=O)/C=C(O)/C(O)=C/C(=O)c2ccc(C)cc2C)c(C)c1`, the GI50 was 1.87 µM (inactive) in the assay with SK-MEL-2; 1.75 µM (inactive) in the assay with U-251; 2.37 µM (inactive) in the assay with SW-620; 1.79 µM (inactive) with UACC-62; 2.05 µM (inactive) with T47D; 2.07 µM (inactive) with CAKI-1. Further, the GI50 with HCC 2998 was 1.92 µM (inactive); with K562 it was 2.96 µM (inactive); in the assay on SNB-75 it was 1.95 µM (inactive); in the assay on UO-31 it was 1.36 µM (inactive); in the assay with HCT-15, 2 µM; in the assay with RXF 393, 2.02 µM (inactive). For the same compound, the GI50 in the assay with M14 was 1.93 µM (inactive); with NCI-H23, 1.65 µM (inactive); with SR, 2.33 µM (inactive); in the assay on 786-0 it was 2.03 µM (inactive); in the assay with MOLT-4 it was 1.98 µM (inactive); in the assay on NCI-H522, 1.64 µM (inactive). Moreover, in the assay with COLO 205, the GI50 was 1.82 µM (inactive).
With `CC(C)=C1CCC(CN2CCOCC2)C1=O` (stereo not given), the GI50 is 19 µM (inactive) with SK-MEL-2; 32.1 µM (inactive) with U-251; 1.76 µM (inactive) in the assay with SW-620; 17 µM (inactive) in the assay with UACC-62; 0.348 µM (active) in the assay on CAKI-1; 15.4 µM (inactive) with HCC 2998. Also, the GI50 with K562 was 1.72 µM (inactive); in the assay on SNB-75, 4.72 µM (inactive); in the assay with UO-31, 18.1 µM (inactive); in the assay with HCT-15 it was 5.22 µM; with RXF 393, 2.07 µM (inactive); with M14 it was 3.52 µM (inactive). Besides, the GI50 is 17.7 µM (inactive) in the assay with NCI-H23; 19.1 µM (inactive) in the assay with MDA-N; 3.57 µM (inactive) with SR; 3.79 µM (inactive) in the assay with 786-0; 2.34 µM (inactive) with MOLT-4; 0.0454 µM (active) in the assay on NCI-H522. Further, the GI50 in the assay with COLO 205 was 4.66 µM (inactive).
Regarding `Cn1ccnc1S/C(=C\C=C(C#N)C#N)c1ccc(Cl)cc1`, the GI50 was 2.82 µM (inactive) in the assay with U-251; 0.303 µM (active) in the assay on SW-620; 2.34 µM (inactive) in the assay on UACC-62; 4.42 µM (inactive) in the assay with T47D; 1.69 µM (inactive) in the assay with CAKI-1; 4.92 µM (inactive) in the assay on HCC 2998. Further, the GI50 was 0.252 µM (active) in the assay with K562; 5.37 µM (inactive) in the assay with SNB-75; 2.64 µM (inactive) with UO-31; 2.52 µM in the assay with HCT-15; 1.84 µM (inactive) with RXF 393; 0.993 µM (active) with M14. Also, the GI50 in the assay on NCI-H23 is 1.61 µM (inactive); in the assay on SR it was 0.143 µM (active); in the assay on 786-0 it was 1.33 µM (inactive); in the assay on MOLT-4, 1.18 µM (inactive); in the assay with NCI-H522, 2.45 µM (inactive); with COLO 205, 2.99 µM (inactive).
`CC[N+](C)(CC)CCNC(=O)C(O)(c1ccccc1)c1ccccc1`: the GI50 in the assay on U-251, with SW-620, in the assay on UACC-62, in the assay with CAKI-1, in the assay with HCC 2998 and in the assay with K562 was > 100 µM (inactive) in each case. For the same compound, the GI50 in the assay on SNB-75 was 35.6 µM (inactive); in the assay on UO-31, > 100 µM (inactive); in the assay with HCT-15, above 100 µM; in the assay on RXF 393, > 100 µM (inactive); in the assay on M14, > 100 µM (inactive); in the assay with NCI-H23, > 100 µM (inactive). For the same compound, the GI50 in the assay on MDA-N, in the assay with SR, in the assay with 786-0, in the assay on MOLT-4, in the assay with NCI-H522 and in the assay on COLO 205 was > 100 µM (inactive) throughout.
Regarding `COc1ccc(C2N(c3ccc(C)c(N=C=O)c3)C(=O)N3C(c4ccc(OC)cc4)N(c4ccc(C)c(N=C=O)c4)C(=O)N23)cc1` (stereo not given), the GI50 is 49.7 µM (inactive) with SK-MEL-2; > 100 µM (inactive) with U-251; > 100 µM (inactive) in the assay on SW-620; > 100 µM (inactive) with CAKI-1; > 100 µM (inactive) with HCC 2998; > 100 µM (inactive) in the assay with K562. In addition, the GI50 in the assay with SNB-75 is 37.7 µM (inactive); in the assay with UO-31 it was > 100 µM (inactive); in the assay with HCT-15, above 100 µM; in the assay on RXF 393, > 100 µM (inactive); in the assay with M14, 29.1 µM (inactive); in the assay with NCI-H23 it was > 100 µM (inactive). For the same compound, the GI50 in the assay with MDA-N was > 100 µM (inactive); with SR, > 100 µM (inactive); in the assay with 786-0, > 100 µM (inactive); with MOLT-4, > 100 µM (inactive); with COLO 205 it was 62.4 µM (inactive).
As to `COC(=O)[C@@H]1O[C@]12C(CO[Si](C)(C)C(C)(C)C)OC(n1ccc(=O)[nH]c1=O)C2O[Si](C)(C)C(C)(C)C` (stereo not given in full), the GI50 in the assay on SK-MEL-2 was 17.4 µM (inactive); in the assay with U-251, 26.2 µM (inactive); in the assay on SW-620 it was 26.1 µM (inactive); in the assay on UACC-62 it was 24.2 µM (inactive); in the assay on CAKI-1, 19.7 µM (inactive); in the assay with HCC 2998, 6.87 µM (inactive). Also, the GI50 was 25.5 µM (inactive) with K562; > 100 µM (inactive) in the assay on SNB-75; 18.9 µM (inactive) in the assay with UO-31; 28.3 µM with HCT-15; 15.3 µM (inactive) in the assay on M14; 19.8 µM (inactive) with NCI-H23. The GI50 was 33.1 µM (inactive) in the assay with MDA-N; > 10 µM (inactive) in the assay on SR; 20.6 µM (inactive) in the assay with 786-0; 8.36 µM (inactive) in the assay with MOLT-4; 19.7 µM (inactive) in the assay on NCI-H522; 24.1 µM (inactive) with COLO 205.
Regarding `O=C1Nc2ccccc2C(=O)/C1=C/NC(=S)NCc1ccccc1`, the GI50 in the assay on SK-MEL-2, with U-251, in the assay with SW-620, in the assay on UACC-62, with T47D and with CAKI-1 was > 100 µM (inactive) each time. In addition, the GI50 with SNB-75, with UO-31, with M14, with NCI-H23, in the assay on MDA-N and in the assay with 786-0 was > 100 µM (inactive) in each case. Also, the GI50 with MOLT-4 and in the assay on COLO 205 was > 100 µM (inactive) in each case.
